Where two headings read alike, the source gives them in different places. A value given as a limit tells only on which side of the number the result lay.

Assay [1] deals with A549 cells. The experiment in a line: Cultured cancer cell viability assay (cell titer glo, A549 CTG). It is filed as cell-based. As to conditions: Homo sapiens. The text has this:
Anti-tumor effects are monitored in cultured cancer cells after several days of compound treatment. The cell titer glo assay (Promega) measures the amount of ATP present as a proxy for cellular viability. Cellular counting is done using high-content microscopy followed by image analysis. A hanging drop 3D-culture system (3D Biomatrix) is used followed by cell titer glo to measure growth in a tumor-like environment.
The cellular assay provides information about the anti-neoplastic activity of the compounds of the invention. The compounds are tested against cultured cancer cells to determine whether or not the compounds of the invention are capable of intersecting with cancer cells to minimize or eliminate such cells. The assay involves establishing colonies of such cells and then treating them with the test compound under specified conditions and analysis regime to determine results.
(§1) Plate 25 μL of A549 cells in every well of 384-well plate using multidrop.
One (1) white plate for viability at 500 cells/well.
Serial dilute compounds with a 10 point 2-fold serial dilution in DMSO to make 250× stock compound solution
Dilute compounds 1:125 in cell culture media to make a 2× solution Add 25 μl of dilution compounds to cell plates in well duplicates
Put cells back in incubator (6 hr incubation for black plates, 72 hr incubation for white plates).
Thaw an aliquot of frozen cell titer glo (Promega G7572) at room temperature.
Add 45 mL of NaCl/PBS solution to 5 ml of cell titer glo (10×).
Remove white plates from incubator, leave at room temp for 30 minutes.
Add 25 μl of diluted cell titer glo to each well.
Shake plate for >1 minute.
Incubate plate for >5 minutes to stabilize luminescence. • Luminescence is stable for up to 3 hours.
Read luminescence on plate reader
The results are reported on the following Table I for Examples A-EE and the E1-E4 compounds as 50 percent Inhibitory concentration at candidate doses of less than 1 μM, less than 3 μM and less than 10 μM for both of the K48 antibody and the p53 (CTG) antibody assays
On the technique in general: Cellular ATP, detected with luciferase, serves as a proxy for viable cell number.

For assay [2], the target named is p97 (Homo sapiens, UniProt P55072). Description: P97 ATPase biochemical assay (ADP Glo). The method, then:
The ATPase assay is performed according the following protocol: Purified enzyme (20 nM p97), substrate (20 μM ATP) and a dose titration of compounds are mixed in buffer (50 mM TRIS pH 7.5, 20 mM MgCl2, 0.02% TX-100, 1 mM DTT, 0.2% (v/v) glycerol) and incubated at 37° C. for 15 minutes. The reaction is terminated and the level of product generated is measured using the ADP Glo Assay Kit (Promega, Madison Wis.). Plotting product generated versus compound concentration and using a four-parameter fit model generates an IC50 value for each compounds.
The p97 assay is an initial screening assay used to determine inhibitory activity of the monocyclic pyrimidine compounds of the invention against the p97 complex. As discussed above, inhibition of activity of the p97 proteosome complex can enable apoptosis and cause elimination of neoplastic cells (cancer cells). The method follows that of Christianson in Nat. Cell Biol., (2011) 14:93.
Assay Buffer is a mixture of 50 mM TRIS pH 7.5, 20 mM MgCl2, 0.02% TX-100, 1 mM DTT and 0.2% (v/v) Glycerol. The well plate is Platetype: Corning 3674, 384w plate. The identification kit is an ADP glo kit (Promega): stop buffer, detection reagent.
Serial dilute compound in DMSO in a 1:3.33-fold 10 point serial dilution.
0.5 μL compound serial diluted in DMSO (Final Conc. 10%)
2 μL ATP (Final Conc.=20 uM, diluted in assay buffer)
2.5 μL p97 (Final Conc.=20 nM, diluted in assay buffer)
Incubate at 37 degC for 15 min.
Add 5 μL of stop buffer, incubate at RT for 40 min.
Add 10 μL of detection reagent, incubate at RT for 30 min.
Read luminescence on Envision plate reader. • Upon obtaining the data from the luminescence reading, the data may be analyzed as follows:
Normalize luminescence data using no enzyme (full inhibition) and no compound (no inhibition) controls. Plot normalized luminescence data against log-transformed concentration values and fit to a sigmoidal curve to determine IC50 values (done in Collaborative Drug Discovery software).
The results are reported on the following Table for Examples A-EE and the E1-E4 compounds as 50 percent Inhibitory concentration at candidate doses of less than 30 nM, less than 100 nM, less than 300 nM and less than 1000 nM for the p97 inhibition assay.

Assay [3] has as its system K48 poly-Ubiquitin accumulation in A549 cells. The experiment in a line: A549 K48 poly-ubiquitin accumulation immunofluorescence assay. It counts as cell-based. As to conditions: Homo sapiens. The method, then: Image-analysis is used to generate quantitative data from these assays that can be fit to a four-parameter sigmoid curve to derive IC50 values. Substrates of the ubiquitin-proteasome system, such as p53, are monitored after tumor cell lines are incubated with compounds for several hours. Accumulation of these proteins indicates an inhibition of proteasome-mediated degradation. Accumulation of lysine-48 chain linkage of poly-ubiquitin is also monitored by immunofluorescence as an indicator of ubiquitin-proteasome system inhibition. Both LC3 and SQSTM1 are mediators of autophagy. The localization and amounts of these proteins are monitored by immunofluorescence and report on the activity and inhibition of autophagy in response to p97 inhibition.
as §1
Two (2) black plates for IF at 2500 cells/well
Serial dilute compounds with a 10 point 2-fold serial dilution in DMSO to make 250× stock compound solution Dilute compounds 1:125 in cell culture media to make a 2× solution Add 25 μl of dilution compounds to cell plates in well duplicates Put cells back in incubator (6 hr incubation for black plates, 72 hr incubation for white plates).
Incubate cells in black plates with compound at 37 degC for 6 hrs. add 15 μL of 16% Paraformaldehyde (PFA) directly into media of each well, incubate at room temp for 5 min, flick plate and wash in 50 μL of PBS block in 50 μL of Blocking Buffer for 30 minutes (can go up to several hours) Blocking buffer: 1×PBS, 1% BSA, 0.3% Triton-X100, Hoechst (1:10,000) incubate in 25 μL of primary antibody in blocking buffer at 4 degC over night […]
Secondary Antibodies: • AlexaFluor488 Goat anti-Rabbit 1:2,000 (Life Tech A11008) • AlexaFluor555 Goat anti-Mouse 1:2,000 (Life Tech A21422) incubate in 25 μl of secondary antibody (1:2,000) in blocking buffer for 1-2 hrs at room temp (alexafluor488-anti-Rabbit/alexafluor555-anti-Mouse) Image plates in high content microscope with 405 nm, 488 nm and 555 nm filters Nuclear counts and cellular intensities of each markers are measured using Hoechst as a nuclear marker with an automated image analysis protocol using Matlab software (Math Works) The results are reported on the following Table I for Examples A-EE and the E1-E4 compounds as 50 percent Inhibitory concentration at candidate doses of less than 1 μM, less than 3 μM and less than 10 μM for both of the K48 antibody and the p53 (CTG) antibody assays

Setting [4] is: A549 cells, 72 hr incubation, cell titer glo, read-out: A549 CTG IC50.
[5] abbreviates: 20 nM p97, 20 uM ATP, 37 degC 15 min.
Setting [6] is: A549 cells, 6 hr incubation, K48-Ub antibody, read-out: A549 K48 IC50.

Chain of p97 (P55072 whole entry): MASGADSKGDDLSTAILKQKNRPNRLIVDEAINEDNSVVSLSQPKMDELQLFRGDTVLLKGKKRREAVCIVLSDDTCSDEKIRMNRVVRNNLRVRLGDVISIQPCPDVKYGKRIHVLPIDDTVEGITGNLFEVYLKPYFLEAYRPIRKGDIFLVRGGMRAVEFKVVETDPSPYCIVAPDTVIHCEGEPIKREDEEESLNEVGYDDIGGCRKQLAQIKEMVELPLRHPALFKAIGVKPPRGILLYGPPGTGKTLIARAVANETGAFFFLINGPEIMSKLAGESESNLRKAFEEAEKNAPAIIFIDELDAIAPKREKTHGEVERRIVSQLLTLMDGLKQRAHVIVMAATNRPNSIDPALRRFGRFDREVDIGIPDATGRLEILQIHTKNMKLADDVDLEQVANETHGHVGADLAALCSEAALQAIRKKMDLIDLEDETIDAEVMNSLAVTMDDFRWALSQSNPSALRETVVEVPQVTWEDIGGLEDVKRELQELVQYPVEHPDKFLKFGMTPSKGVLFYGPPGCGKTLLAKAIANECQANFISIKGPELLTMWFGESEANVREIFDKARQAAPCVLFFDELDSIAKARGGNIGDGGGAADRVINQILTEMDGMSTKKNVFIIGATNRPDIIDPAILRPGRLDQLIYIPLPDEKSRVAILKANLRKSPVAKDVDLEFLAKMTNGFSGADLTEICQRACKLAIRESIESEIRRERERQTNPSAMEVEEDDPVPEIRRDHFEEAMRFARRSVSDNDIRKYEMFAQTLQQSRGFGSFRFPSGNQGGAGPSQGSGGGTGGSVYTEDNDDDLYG

`Cc1c(NCc2ccccc2)nc(-n2c(C)cc3c(C(N)=O)cccc32)nc1C(F)(F)F` [Example 9, 1-[4-(benzylamino)-5-methyl-6-(trifluoromethyl)pyrimidin-2-yl]-2-methyl-1H-indole-4-carboxamide]: the IC50 is below 3 µM in assay [1] (setting [4]), below 0.03 µM in assay [2] (setting [5]) and below 3 µM in assay [3] (setting [6]).

For `Cc1cc2c(C(N)=O)cccc2n1-c1ncc(C(N)=O)c(NCc2ccccc2)n1` [Example 10, 1-[4-(benzylamino)-5-carbamoylpyrimidin-2-yl]-2-methyl-1H-indole-4-carboxamide], the IC50 in assay [1] (setting [4]) was below 10 µM; in assay [2] (setting [5]) it was below 0.1 µM; in assay [3] (setting [6]), below 10 µM.

`Cc1nc(-n2ncc3c(C(N)=O)cccc32)nc(NCc2ccccc2)c1C(C)C` [Example 11, 1-(4-(benzylamino)-5-isopropyl-6-methylpyrimidin-2-yl)-1H-indazole-4-carboxamide]: the IC50 was below 3 µM in assay [1] (setting [4]), below 0.3 µM in assay [2] (setting [5]) and below 3 µM in assay [3] (setting [6]).

`Cc1cc2c(C(N)=O)cccc2n1-c1ncc(C(C)C)c(NCc2ccccc2)n1` [Example 12, 1-(4-(benzylamino)-5-(propan-2-yl)pyrimidin-2-yl)-2-methyl-1H-indole-4-carboxamide]: the IC50 is 0.73 µM in assay [1] (A549, Table II, preliminary assays, read-out: Cell Titre Glow Assay IC50); below 1 µM in assay [1] (setting [4]); below 0.03 µM in assay [2] (setting [5]); 0.009 µM in assay [2] (Table II, preliminary assays); 0.64 µM in assay [3] (A549, Table II, preliminary assays, read-out: K48 poly-Ubiquitin Accumulation); below 3 µM in assay [3] (setting [6]).

As to `Cc1cc2c(C(N)=O)cccc2n1-c1ncc(N(C)C)c(NCc2ccccc2)n1` [Example 13, 1-(4-(benzylamino)-5-(dimethylamino)pyrimidin-2-yl)-2-methyl-1H-indole-4-carboxamide], the IC50 was below 3 µM in assay [1] (setting [4]), below 0.03 µM in assay [2] (setting [5]) and below 1 µM in assay [3] (setting [6]).

For the compound `Cc1nc(-n2c(C)cc3c(C(N)=O)cccc32)nc(NCc2ccccc2)c1N(C)C` [Example 15, 1-[4-(benzylamino)-5-(dimethylamino)-6-methylpyrimidin-2-yl]-2-methyl-1H-indole-4-carboxamide], the IC50 in assay [1] (setting [4]) is below 3 µM; in assay [2] (setting [5]), below 0.03 µM; in assay [3] (setting [6]) it was below 3 µM.

Consider `COCc1cnc(-n2c(C)cc3c(C(N)=O)cccc32)nc1NCc1ccccc1` [Example 18, 1-[4-(benzylamino)-5-(methoxymethyl)pyrimidin-2-yl]-2-methyl-1H-indole-4-carboxamide], for which the IC50 in assay [1] (setting [4]) was below 10 µM; in assay [2] (setting [5]) it was below 0.3 µM; in assay [3] (setting [6]), below 3 µM.

Consider `Cc1cc2c(C(N)=O)cccc2n1-c1ncc(S(C)(=O)=O)c(NCc2ccccc2)n1` [Example 19, 1-[4-(benzylamino)-5-(methylsulfonyl)pyrimidin-2-yl]-2-methyl-1H-indole-4-carboxamide], for which the IC50 is below 3 µM in assay [1] (setting [4]), below 0.1 µM in assay [2] (setting [5]) and below 3 µM in assay [3] (setting [6]).

`CC(=O)NCc1cnc(-n2c(C)cc3c(C(N)=O)cccc32)nc1NCc1ccccc1` [Example 24, 1-[4-(benzylamino)-5-(acetamidomethyl)pyrimidin-2-yl]-2-methyl-1H-indole-4-carboxamide]: the IC50 is below 10 µM in assay [1] (setting [4]), below 0.3 µM in assay [2] (setting [5]) and below 10 µM in assay [3] (setting [6]).

For the compound `Cc1cc2c(C(N)=O)cccc2n1-c1ncc(OC(C)C)c(NCc2ccccc2)n1` [Example 26, 1-[4-(benzylamino)-5-(propan-2-yloxy)pyrimidin-2-yl]-2-methyl-1H-indole-4-carboxamide], the IC50 is below 3 µM in assay [1] (setting [4]), below 0.1 µM in assay [2] (setting [5]) and below 3 µM in assay [3] (setting [6]).

On to `CCOc1cnc(-n2c(C)cc3c(C(N)=O)cccc32)nc1NCc1ccccc1` [Example 27, 1-[4-(benzylamino)-5-ethoxypyrimidin-2-yl]-2-methyl-1H-indole-4-carboxamide], for which the IC50 in assay [1] (setting [4]) was below 3 µM; in assay [2] (setting [5]), below 0.03 µM; in assay [3] (setting [6]) it was below 3 µM.

Take `COCCOc1cnc(-n2c(C)cc3c(C(N)=O)cccc32)nc1NCc1ccccc1` [Example 28, 1-[4-(benzylamino)-5-(2-methoxyethoxy)pyrimidin-2-yl]-2-methyl-1H-indole-4-carboxamide]: the IC50 in assay [1] (setting [4]) was below 10 µM; in assay [2] (setting [5]), below 0.1 µM; in assay [3] (setting [6]), below 3 µM.

On to `COc1cnc(-n2c(CN)cc3c(C(N)=O)cccc32)nc1NCc1ccccc1` [Example 29, 2-(aminomethyl)-1-(4-(benzylamino)-5-methoxypyrimidin-2-yl)-1H-indole-4-carboxamide], for which the IC50 in assay [1] (setting [4]) was below 3 µM; in assay [2] (setting [5]), below 0.1 µM; in assay [3] (setting [6]), below 1 µM.

`CC(C)c1cnc(-n2c(CN)cc3c(C(N)=O)cccc32)nc1NCc1ccccc1` [Example 30, 2-(aminomethyl)-1-[4-(benzylamino)-5-(propan-2-yl)pyrimidin-2-yl]-1H-indole-4-carboxamide]: the IC50 was below 3 µM in assay [1] (setting [4]), below 0.1 µM in assay [2] (setting [5]) and below 3 µM in assay [3] (setting [6]).

`COc1nc(-n2c(C)cc3c(C(N)=O)cccc32)nc(NCc2ccccc2)c1C` [Example 33, 1-(4-(benzylamino)-6-methoxy-5-methylpyrimidin-2-yl)-2-methyl-1H-indole-4-carboxamide]: the results for the IC50 in assay [1] (setting [4]), in assay [2] (setting [5]) and in assay [3] (setting [6]) were below 10 µM, below 0.03 µM and below 3 µM, respectively.

The values are drawn from patent publication US9868722B2, “Monocyclic pyrimidine/pyridine compounds as inhibitors of P97 complex” (Cleave Biosciences, Inc., priority 2013, dated 2018).
